Experiments:
[1] = tested on: Cancer of the Ovary with Liver Metastasis; test: Antimycotic treatment of a Candida-seropositive patient, cancer of the ovary with liver metastasis; assay type: in vivo, human; conditions: Patient 6, Candida serological test 640; 100 mg 1 capsule a day for 30 days
Method: The inventor has performed many serological tests on patients suffering from various illnesses and particularly from different types of cancer.
Patient 6: person with Cancer of the Ovary with Liver Metastasis.
The patient was treated with Diflucan, 100 mg 1 capsule a day. For 30 days

Psoriasis = test: Antimycotic treatment of a Candida-seropositive patient, psoriasis; assay type: in vivo, human; conditions: Patient 4, Candida serological test 640; 100 mg 1 capsule a day for 1 month
Method: (§1) The inventor has performed many serological tests on patients suffering from various illnesses and particularly from different types of cancer. The inventor has shown that, in many of the patients who tested positive for Candida in the serological tests, after antimycotic treatments, a full recovery was observed, with complete disappearance of the tumours in the case of the patients affected by cancer.
Positive Candida serological test (640)
The patient was treated with Diflucan, 100 mg 1×1 capsule a day. For 1 month.

C. glabrata = conditions: some other species of Candida, particularly C. glabrata; cited from earlier work
C. cruzii = conditions: infections caused by C. cruzii; cited from earlier work
candidiasis = conditions: in vivo; cited from earlier work
Prostate Cancer = test: Antimycotic treatment of Candida-seropositive patients, prostate cancer; assay type: in vivo, human
Source text: as §1
Patient 2: person with Prostate Cancer.
Positive for Candida serological test (640)
The patient was treated with Orungal, 100 mg capsules, 1×1 caps a day for 1 month.
Patient 7: person with Prostate Cancer
Positive candida serological test (320).
The patient was treated with Nizoral (1 tablet 2× day for two weeks, then 1 tablet a day for 30 days.

[2] = tested on: tumour of the myoma of the uterus; test: Antimycotic treatment of a Candida-seropositive patient, tumour of the myoma of the uterus; assay type: in vivo, human; conditions: Patient 1, Candida rate 640; 1 tablet 2x day for two weeks, then 1 tablet a day for 30 days
Source text: as §1
A patient, hospitalised, suffering from a tumour of the myoma of the uterus.
The patient was treated with Nizoral (1 tablet 2× day for two weeks, then 1 tablet a day for 30 days).

Ulcerative Colitis = test: Antimycotic treatment of a Candida-seropositive patient, ulcerative colitis; assay type: in vivo, human; conditions: Patient 5, serological test 320; 100 mg 1 caps a day for 28 days
Method: as §1
Patient 5: Ulcerative Colitis.
Positive serological test (320).
The patient was treated with Orungal, 100 mg 1×1 caps a day, for 28 days.

Breast Cancer = test: Antimycotic treatment of a Candida-seropositive patient, breast cancer; assay type: in vivo, human; conditions: Patient 3, Candida serological test 320; capsule 100 mg, 1 caps a day for 60 days
Method: as §1
Patient 3: person with Breast Cancer
The patient was treated with Orungal, capsule 100 mg, 1×1 caps a day for 60 days.

With `OC(Cn1cncn1)(Cn1cncn1)c1ccc(F)cc1F` [Diflucan] the Result of treatment [1] was “Complete recovery with disappearance of the tumours” and the Result of treatment (Psoriasis) was “Complete recovery at the end of the treatment”.
For `OC(Cn1cncn1)(Cn1cncn1)c1ccc(F)cc1F` [Fluconazole, fluconazole], the “Sensitivity compared with C. albicans” value (C. glabrata) is listed as “less sensitive”, the “Response of infections to treatment” value (C. cruzii) is listed as “do not respond” and the “Effectiveness in candidiasis compared with amphotericin B” value (candidiasis) is listed as “as effective as amphotericin B”.
In the case of `CC(=O)N1CCN(c2ccc(OCC3COC(Cn4ccnc4)(c4ccc(Cl)cc4Cl)O3)cc2)CC1` (stereo not shown) [Nizoral], the Result of treatment (Prostate Cancer; Patient 7, Candida serological test 320, 1 tablet 2x day for two weeks, then 1 tablet a day for 30 days) is reported as “Complete recovery” and the “Result of treatment (tumour)” value [2] is reported as “Disappearance of the tumour at the end of the treatment”.
For `CCC(C)n1ncn(-c2ccc(N3CCN(c4ccc(OCC5COC(Cn6cncn6)(c6ccc(Cl)cc6Cl)O5)cc4)CC3)cc2)c1=O` (stereo not shown) [Orungal], the Result of treatment (Ulcerative Colitis) was “Complete recovery at the end of the treatment”, the Result of treatment (Breast Cancer) was “Complete recovery at the end of the treatment” and the Result of treatment (Prostate Cancer; Patient 2, Candida serological test 640, 100 mg capsules, 1 caps a day for 1 month) was “Complete recovery at the end of the treatment with disappearance of the tumour”.
